Test results taken from paper PMC6290777, “Inhalation of the prodrug PI3K inhibitor CL27c improves lung function in asthma and fibrosis” (Nature Communications, 2018).
Where “and” joins values, the source holds several entries; their conditions need not be identical. Equal entries are not always repeated.

Molecular target: T1, PI3Kα (Homo sapiens, UniProt P42336)
T1 construct: purchased Nanosyn Biology, Inc., Santa Clara, CA, USA
Test: Kinome profiling assay (Nanosyn 250-kinase panel)
Assay type: biochemical
Method: Supplementary Figure 2: Kinase selectivity of CL27e
Kinase selectivity of the CL27c active metabolite, CL27e, was evaluated at 0.02 µM and 0.2 µM using the Nanosyn 250-kinase panel. Red color indicates selectivity for PI3Kα, on which CL27e […]
Results are expressed as mean percentage inhibition for each
(1 picture or pasted object on this page, not shown here)
Human lung fibroblast cell culture
Two separate human lung fibroblast cell lines isolated from IPF patients were used: LL97a derived from a person (ATCC, Manassas, USA) and DHLF-IPF (#CC-7231, Lonza, Switzerland). Control cell lines were CCD-16Lu, obtained from a person that died of astrocytoma –a disease unrelated to IPF - (ATCC) and NHLF (#CC-2512; Lonza). […]
Caliper based assay, the reaction was terminated by addition of EDTA buffer. Substrate and product were separated and quantified electrophoretically using the microfluidic-based and the assay plate was read on Caliper LabChip 3000 Drug Discovery System from Caliper Life Sciences (Walthan, MA, USA). ADP Glo was another method of detection used for some kinase assays where data was obtained by quantifying the intensity of luminescence. For ADP Glo based assay, the reaction was terminated by applying the Promega ADP Glo Kinase Assay kit and the assay plate was read on a LJL Biosystems Analyst HT. […]

T1 sequence (P42336 whole entry, species assumed): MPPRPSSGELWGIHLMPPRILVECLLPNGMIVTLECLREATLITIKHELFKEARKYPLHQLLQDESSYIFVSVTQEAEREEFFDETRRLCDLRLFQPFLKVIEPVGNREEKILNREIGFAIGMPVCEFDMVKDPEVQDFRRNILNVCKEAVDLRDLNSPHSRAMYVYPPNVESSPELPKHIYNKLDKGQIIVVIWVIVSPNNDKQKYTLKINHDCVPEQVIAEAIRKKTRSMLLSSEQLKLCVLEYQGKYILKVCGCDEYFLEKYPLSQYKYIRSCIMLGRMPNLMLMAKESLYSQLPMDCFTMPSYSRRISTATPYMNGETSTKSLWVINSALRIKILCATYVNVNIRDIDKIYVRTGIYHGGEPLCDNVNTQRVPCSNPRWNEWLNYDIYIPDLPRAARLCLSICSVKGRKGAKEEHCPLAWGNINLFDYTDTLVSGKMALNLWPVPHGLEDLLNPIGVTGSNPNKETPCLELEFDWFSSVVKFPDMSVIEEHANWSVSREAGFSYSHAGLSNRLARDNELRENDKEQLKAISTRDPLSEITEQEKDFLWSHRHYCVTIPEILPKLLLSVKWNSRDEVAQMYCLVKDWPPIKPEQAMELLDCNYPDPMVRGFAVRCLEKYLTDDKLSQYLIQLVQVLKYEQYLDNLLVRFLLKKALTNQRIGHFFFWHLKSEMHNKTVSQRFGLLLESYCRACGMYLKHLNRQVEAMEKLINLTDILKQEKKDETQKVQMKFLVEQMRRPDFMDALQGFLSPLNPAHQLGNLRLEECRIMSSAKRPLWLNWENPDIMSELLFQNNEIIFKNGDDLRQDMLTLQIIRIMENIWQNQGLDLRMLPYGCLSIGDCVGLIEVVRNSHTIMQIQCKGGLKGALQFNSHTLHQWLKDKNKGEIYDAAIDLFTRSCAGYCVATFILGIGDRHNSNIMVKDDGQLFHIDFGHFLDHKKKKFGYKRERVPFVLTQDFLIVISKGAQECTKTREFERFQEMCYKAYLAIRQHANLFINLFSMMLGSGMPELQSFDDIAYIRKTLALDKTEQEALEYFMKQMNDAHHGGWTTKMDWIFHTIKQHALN
T1 sequence (P27986 whole entry partner, species assumed): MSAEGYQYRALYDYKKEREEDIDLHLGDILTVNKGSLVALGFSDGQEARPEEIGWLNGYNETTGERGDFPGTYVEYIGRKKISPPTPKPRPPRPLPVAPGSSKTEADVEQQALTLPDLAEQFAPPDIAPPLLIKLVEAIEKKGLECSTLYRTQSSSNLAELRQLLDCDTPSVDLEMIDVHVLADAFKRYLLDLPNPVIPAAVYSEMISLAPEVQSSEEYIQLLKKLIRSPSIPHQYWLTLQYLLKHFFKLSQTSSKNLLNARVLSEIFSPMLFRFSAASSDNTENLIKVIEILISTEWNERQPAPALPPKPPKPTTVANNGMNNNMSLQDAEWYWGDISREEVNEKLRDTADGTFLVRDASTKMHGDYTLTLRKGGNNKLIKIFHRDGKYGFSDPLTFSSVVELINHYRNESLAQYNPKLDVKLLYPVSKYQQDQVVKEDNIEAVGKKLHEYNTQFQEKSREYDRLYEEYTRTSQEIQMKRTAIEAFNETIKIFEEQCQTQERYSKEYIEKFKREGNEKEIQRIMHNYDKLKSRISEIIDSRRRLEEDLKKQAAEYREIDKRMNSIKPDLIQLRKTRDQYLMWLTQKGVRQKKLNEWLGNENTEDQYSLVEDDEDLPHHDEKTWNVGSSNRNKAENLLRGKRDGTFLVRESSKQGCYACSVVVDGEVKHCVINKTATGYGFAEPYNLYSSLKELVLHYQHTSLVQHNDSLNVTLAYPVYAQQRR

How did the “inhibition of PI3Kα” value (high concentration (0.2 µM), 0.2 µM) turn out when `O=C(O)c1cccc(Cn2cc(-c3cccc4c(=O)cc(N5CCOCC5)[nH]c34)nn2)c1` [CL27e] was run?
Its value is > 80% and 81%.

And the “inhibition of PI3Kα” value (low concentration (0.02 µM))?
Its value is 23%.
